# Where two headings read alike, the source gives them in different places.
# Legend:
# [1] = SIN-1-induced ROS scavenging assay; details: 20 µM; SIN-1 as ROS generator; DCFH-DA probe
# Excerpt: The scavenging activities of the BABT derivatives 1–14 against ROS and peroxynitrite (ONOO^−) were investigated because the antioxidant activities of the compounds may modulate melanogenesis. To measure the ROS scavenging activities of BABT derivatives, 2′,7′-dichlorodihydrofluorescein diacetate (DCFH-DA) and 3-morpholinosydnonimine (SIN-1) were used as a fluorogenic probe and ROS generator, respectively. The reaction of DCFH-DA with esterase produces 2′,7′-dichlorodihydrofluorescein (DCFH), which generates the fluorescent compound 2′,7′-dichlorofluorescein (DCF) by reacting with ROS produced by SIN-1. Therefore, ROS scavenging activities were determined by measuring the DCF fluorescence remaining after the BABT derivatives scavenged the ROS generated by SIN-1. […] BABT derivatives and Trolox, the positive control, were used at a concentration of 20 µM.
# The ROS scavenging activities of the BABT derivatives were measured using an oxidant-sensitive fluorescent probe. Derivatives or Trolox (10 µL; final concentration: 20 µM) were seeded in a black 96-well plate. Then, 10 µL of SIN-1 (10 µM) was added to induce radical species generation and mixed with 180 µL of sodium phosphate buffer (pH 7.4) containing 12.5 µM DCF-DA and 600 units of esterase. Fluorescence intensity was measured at emission and excitation wavelengths of 535 and 485 nm, respectively, using a fluorescence microplate reader (Berthold Technologies GmbH & Co., Wien, Austria). Trolox was used as the positive control.
# [2] = Peroxynitrite scavenging assay; details: 20 µM; SIN-1 as generator; DHR123 probe
# Procedure: The effects of the BABT derivatives on peroxynitrite scavenging activities were also examined using SIN-1 as an RNS generator and dihydrorhodamine (DHR123) as an ROS indicator. DHR123 was converted to fluorescent rhodamine 123 by peroxynitrite generated by SIN-1. Therefore, the peroxynitrite scavenging activities of 1–14 were assessed by measuring the fluorescence of rhodamine 123. BABT derivatives and penicillamine, the positive control, were used at a concentration of 20 µM.
# The peroxynitrite scavenging activities of the BABT derivatives were assessed using the method developed by Kooy, involving the monitoring of highly fluorescent rhodamine 123, which was rapidly produced from non-fluorescent DHR123 in the presence of peroxynitrite. Rhodamine buffer (pH 7.4) was composed of 50 mM sodium phosphate dibasic, 50 mM sodium phosphate monobasic, 90 mM sodium chloride, 5 mM potassium chloride, and 100 µM DTPA. A 10 µL aliquot of BABT derivatives or PCA (final concentration: 20 µM) was seeded in a black 96-well plate. Then, 10 µL of SIN-1 (10 µM) was added to induce radical species generation and mixed with 180 µL of rhodamine buffer. Fluorescence intensity was measured at emission and excitation wavelengths of 535 and 485 nm, respectively, using a fluorescence microplate reader (Berthold Technologies GmbH & Co.). PCA was used as the positive control.
# mushroom tyrosinase = experiment: Mushroom tyrosinase inhibition assay; type: biochemical; details: for IC50: mean ± SEM of three experiments
# Procedure: As mushroom tyrosinase is commercially available and relatively cheap, it is used as a tool for the identification of novel tyrosinase inhibitors. Here, we examined the tyrosinase inhibitory activities of the 14 BABT derivatives against mushroom tyrosinase in the presence of L-tyrosine or L-dopa as substrates.
# Mushroom tyrosinase inhibitory activities of BABT derivatives were determined as described previously, with minor modifications. L-Tyrosine and L-dopa were used as substrates to evaluate the enzyme activity. […] Assay mixtures were incubated at 37 °C for 30 min, and dopachrome amounts synthesized were determined by measuring the optical density of each well at 475 nm using a microplate reader (VersaMax; Molecular Devices, Sunnyvale, CA, USA).
# [3] = DPPH radical scavenging assay; details: test samples 500 µM; DPPH 0.18 mM; 30 min in the dark
# Procedure: DPPH is a light-sensitive compound containing free radicals. The DPPH assay is one of the most common methods for evaluating the antioxidant activity of a compound. The effects of BABT derivatives on DPPH radical scavenging activities were evaluated using L-ascorbic acid as a positive reference control. DPPH radical scavenging activities were measured after leaving the mixed samples (test samples of 500 µM plus DPPH solution of 0.18 mM) in the dark for 30 min. To determine the radical scavenging activities, the absorbance of the mixed samples was measured at 517 nm.
# According to previously described methods, with minor modifications, the DPPH radical scavenging activities of BABT derivatives 1–14 were measured. A DPPH (0.2 mM) and methanol solution (180 µL) was mixed with 20 µL of a DMSO solution containing 5 mM BABT derivative, or with 20 µL of an aqueous solution of 5 mM L-ascorbic acid, in each well of a 96-well plate and kept at ambient temperature in the dark for 30 min. The optical density of each well was measured at 517 nm using a microplate reader (VersaMax; Molecular Devices). L-Ascorbic acid was used as a positive reference control, and the DPPH radical scavenging abilities of BABT derivatives were compared with those of L-ascorbic acid. All experiments were performed independently, thrice.
# B16F10 cells = experiment: Measurement of extracellular and intracellular melanin levels; type: cell-based, murine; details: 20 µM; α-MSH plus IBMX stimulated B16F10 cells; 72 h
# Procedure: To investigate the effects of derivative 8 on extracellular and intracellular melanin levels in B16F10 cells, the cells were treated with various concentrations (5, 10, and 20 µM) of derivative 8 for 1 h, in addition to co-treatment with α-MSH (0.5 µM) and 3-isobutyl-1-methylxanthine (IBMX; 200 µM) to enhance melanin biosynthesis in B16F10 cells. After 72 h of incubation, the effects of 8 on extracellular and intracellular melanin levels were determined by measuring the melanin absorbance in the culture media and cell lysates, respectively, at 405 nm using a microplate reader.
# The effect of 8 on melanin production was measured using a standard melanin content assay, with minor modifications. Briefly, B16F10 cells were seeded at a density of 1 × 10^5 cells per well and allowed to adhere to the well bottoms for 24 h under the conditions used for cell cultures. […] After incubation for 72 h at 37 °C in a 5% CO2 atmosphere, melanin levels were determined. To measure the extracellular melanin levels, the absorbance of each well of the culture medium was measured at 405 nm. […] Cultured cells were washed twice with PBS, and the pellets obtained were dissolved using 1 N NaOH solution (200 µL, 10% DMSO) at 60 °C for 1 h. Cell lysates were transferred to the wells of a 96-well plate, and the optical density of melanin dissolved in each well was measured at 405 nm in aqueous DMSO solution using a microplate reader (VersaMax; Molecular Devices).
# [4] = substrate L-dopa, read-out: IC50 (µM) L-Dopa
# [5] = substrate L-tyrosine, read-out: IC50 (µM) L-Tyrosine
IC50 (mushroom tyrosinase; [4]) [µM],IC50 (mushroom tyrosinase; [5]) [µM],SMILES,ROS scavenging activity (in words) [1],also measured
239.4 ± 2.38,126 ± 10,"COc1ccc(/C=C2\SC(NCc3ccccc3)=NC2=O)cc1 [Compound 2, (Z)-2-(benzylamino)-5-(4-methoxybenzylidene)thiazol-4(5H)-one]",strongly reduced the ROS levels enhanced by SIN-1,fold decrease of tyrosinase inhibitory activity versus derivative 1 (mushroom tyrosinase; substrate L-dopa): 3.7 fold; fold lower tyrosinase inhibitory activity than derivative 1 (mushroom tyrosinase; substrate L-tyrosine): 4.6 fold
> 300,148.3 ± 1.12,"COc1cc(/C=C2\SC(NCc3ccccc3)=NC2=O)ccc1O [Compound 5, (Z)-2-(benzylamino)-5-(4-hydroxy-3-methoxybenzylidene)thiazol-4(5H)-one]",moderate ROS scavenging activities,–
> 300,> 300,"COc1ccc(/C=C2\SC(NCc3ccccc3)=NC2=O)cc1OC [Compound 11, (Z)-2-(benzylamino)-5-(3,4-dimethoxybenzylidene)thiazol-4(5H)-one]",–,mushroom tyrosinase inhibitory activity (in words) (mushroom tyrosinase; substrate L-tyrosine): little-to-no mushroom tyrosinase inhibitory activity
> 300,137 ± 10.7,"CC(C)(C)c1cc(/C=C2\SC(NCc3ccccc3)=NC2=O)cc(C(C)(C)C)c1O [Compound 13, (Z)-2-(benzylamino)-5-(3,5-di-tert-butyl-4-hydroxybenzylidene)thiazol-4(5H)-one]",–,–
231 ± 7.43,192 ± 9.04,"COc1cc(/C=C2\SC(NCc3ccccc3)=NC2=O)cc(OC)c1OC [Compound 14, (Z)-2-(benzylamino)-5-(3,4,5-trimethoxybenzylidene)thiazol-4(5H)-one]",–,mushroom tyrosinase inhibitory activity (in words) (mushroom tyrosinase; substrate L-tyrosine): little-to-no mushroom tyrosinase inhibitory activity

# Second part, the compound before the results:
SMILES,IC50 (mushroom tyrosinase; [4]) [µM],IC50 (mushroom tyrosinase; [5]) [µM],ROS scavenging activity (in words) [1],also measured
"O=C1N=C(NCc2ccccc2)S/C1=C\c1ccc(O)cc1 [Compound 1, (Z)-2-(benzylamino)-5-(4-hydroxybenzylidene)thiazol-4(5H)-one]",65.1 ± 8.29,27.5 ± 2.93,strongly reduced the ROS levels enhanced by SIN-1,peroxynitrite scavenging activity (in words) [2]: strong ROS and peroxynitrite scavenging activities; fold higher IC50 value with L-dopa than with L-tyrosine (mushroom tyrosinase; L-dopa versus L-tyrosine as substrate): 2 fold
"O=C1N=C(NCc2ccccc2)S/C1=C\c1ccc(F)cc1F [Compound 3, (Z)-2-(benzylamino)-5-(2,4-difluorobenzylidene)thiazol-4(5H)-one]",> 300,> 300,moderate ROS scavenging activities,–
"O=C1N=C(NCc2ccccc2)S/C1=C\c1ccc(F)c(F)c1 [Compound 4, (Z)-2-(benzylamino)-5-(3,4-difluorobenzylidene)thiazol-4(5H)-one]",> 300,289 ± 14.7,moderate ROS scavenging activities,–
"CCOc1cc(/C=C2\SC(NCc3ccccc3)=NC2=O)ccc1O [Compound 6, (Z)-2-(benzylamino)-5-(3-ethoxy-4-hydroxybenzylidene)thiazol-4(5H)-one]",248 ± 11.5,199 ± 8.57,–,–
"COc1ccc(/C=C2\SC(NCc3ccccc3)=NC2=O)c(OC)c1 [Compound 10, (Z)-2-(benzylamino)-5-(2,4-dimethoxybenzylidene)thiazol-4(5H)-one]",214 ± 6.29,293 ± 13.1,–,mushroom tyrosinase inhibitory activity (in words) (mushroom tyrosinase; substrate L-tyrosine): little-to-no mushroom tyrosinase inhibitory activity
"COc1cc(/C=C2\SC(NCc3ccccc3)=NC2=O)cc(OC)c1O [Compound 12, (Z)-2-(benzylamino)-5-(4-hydroxy-3,5-dimethoxybenzylidene)thiazol-4(5H)-one]",> 300,166 ± 8.04,–,"DPPH radical scavenging activity, % inhibition [3]: 62%"
"O=C1O[C@H]([C@@H](O)CO)C(O)=C1O [L-Ascorbic acid, L-ascorbic acid, reference compound]",–,–,–,"DPPH radical scavenging activity, % inhibition [3]: 97%"
"O=c1cc(CO)occ1O [kojic acid, Kojic acid, reference compound]",–,–,–,extracellular melanin levels compared to untreated control (B16F10 cells): 1.5 fold; intracellular melanin levels compared to untreated control (B16F10 cells): 1.9 fold
"CC(C)(S)[C@@H](N)C(=O)O [penicillamine, reference compound]",–,–,–,peroxynitrite scavenging activity (in words) [2]: significantly reduced the peroxynitrite levels increased by SIN-1 treatment
